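Each compound was tested at five concentrations against cells in 96-well plates for 48 hours. Here, GI50 denotes the concentration required for 50% inhibition of growth. The concentration for full growth arrest is given as TGI.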
Columns and labels:
Assay in all cases: NCI-60 cell line screen, 48 h
SR leukemia = tested on: SR leukemia
HT29 colon = tested on: HT29 colon
OVCAR-4 ovarian = tested on: OVCAR-4 ovarian
PC-3 prostate = tested on: PC-3 prostate
SNB-19 CNS = tested on: SNB-19 CNS
SN12C renal = tested on: SN12C renal
BT-549 breast = tested on: BT-549 breast
A549 NSCLC = tested on: A549 NSCLC
K-562 leukemia = tested on: K-562 leukemia
SK-OV-3 ovarian = tested on: SK-OV-3 ovarian
UO-31 renal = tested on: UO-31 renal
MOLT-4 leukemia = tested on: MOLT-4 leukemia
LOX IMVI melanoma = tested on: LOX IMVI melanoma
CAKI-1 renal = tested on: CAKI-1 renal
786-0 renal = tested on: 786-0 renal
NCI-H460 lung = tested on: NCI-H460 lung
NCI-H23 lung = tested on: NCI-H23 lung
SF-539 CNS = tested on: SF-539 CNS
HCT-15 colon = tested on: HCT-15 colon
COLO 205 colon = tested on: COLO 205 colon
U251 CNS = tested on: U251 CNS
HCC-2998 colon = tested on: HCC-2998 colon
MALME-3M melanoma = tested on: MALME-3M melanoma
A498 renal = tested on: A498 renal
MDA-MB-231 breast = tested on: MDA-MB-231 breast
UACC-257 melanoma = tested on: UACC-257 melanoma
SK-MEL-5 melanoma = tested on: SK-MEL-5 melanoma
MDA-MB-435 = tested on: MDA-MB-435
OVCAR-8 ovarian = tested on: OVCAR-8 ovarian
M14 melanoma = tested on: M14 melanoma
HS 578T breast = tested on: HS 578T breast
NCI-H522 lung = tested on: NCI-H522 lung
ACHN renal = tested on: ACHN renal
IGROV1 ovarian = tested on: IGROV1 ovarian
NCI/ADR-RES ovarian = tested on: NCI/ADR-RES ovarian
MCF7 breast = tested on: MCF7 breast
DU-145 prostate = tested on: DU-145 prostate
SW-620 colon = tested on: SW-620 colon
EKVX NSCLC = tested on: EKVX NSCLC
SF-295 CNS = tested on: SF-295 CNS
T-47D breast = tested on: T-47D breast
HOP-62 NSCLC = tested on: HOP-62 NSCLC
SK-MEL-2 melanoma = tested on: SK-MEL-2 melanoma
UACC-62 melanoma = tested on: UACC-62 melanoma
CCRF-CEM leukemia = tested on: CCRF-CEM leukemia
HOP-92 NSCLC = tested on: HOP-92 NSCLC
SNB-75 CNS = tested on: SNB-75 CNS
KM12 colon = tested on: KM12 colon
RXF 393 renal = tested on: RXF 393 renal
RPMI-8226 leukemia = tested on: RPMI-8226 leukemia
SK-MEL-28 melanoma = tested on: SK-MEL-28 melanoma
HCT-116 colon = tested on: HCT-116 colon
NCI-H226 lung = tested on: NCI-H226 lung
TK-10 renal = tested on: TK-10 renal
SF-268 CNS = tested on: SF-268 CNS
HL-60(TB) leukemia = tested on: HL-60(TB) leukemia
OVCAR-5 ovarian = tested on: OVCAR-5 ovarian

SMILES: CCCCCc1ccc(S(=O)(=O)Nc2cc(-c3csc(NC(=O)CN4CCN(C)CC4)n3)ccc2N2CCN(C)CC2)cc1
- GI50 (SR leukemia): 173 nM
- TGI (SR leukemia): 930 nM
- GI50 (HT29 colon): 872 nM
- TGI (HT29 colon): 1810 nM
- GI50 (OVCAR-4 ovarian): 1010 nM
- TGI (OVCAR-4 ovarian): 2340 nM
- GI50 (PC-3 prostate): 1200 nM
- TGI (PC-3 prostate): 3490 nM
- GI50 (SNB-19 CNS): 1380 nM
- TGI (SNB-19 CNS): 4110 nM
- GI50 (SN12C renal): 1060 nM
- TGI (SN12C renal): 2370 nM
- GI50 (BT-549 breast): 4070 nM
- TGI (BT-549 breast): 11100 nM
- GI50 (A549 NSCLC): 1250 nM
- TGI (A549 NSCLC): 3720 nM
- GI50 (K-562 leukemia): 166 nM
- TGI (K-562 leukemia): 5530 nM
- GI50 (SK-OV-3 ovarian): 1110 nM
- TGI (SK-OV-3 ovarian): 2670 nM
- GI50 (UO-31 renal): 818 nM
- TGI (UO-31 renal): 1670 nM
- GI50 (MOLT-4 leukemia): 1120 nM
- TGI (MOLT-4 leukemia): 3740 nM
- GI50 (LOX IMVI melanoma): 842 nM
- TGI (LOX IMVI melanoma): 1610 nM
- GI50 (CAKI-1 renal): 895 nM
- TGI (CAKI-1 renal): 1970 nM
- GI50 (786-0 renal): 826 nM
- TGI (786-0 renal): 1570 nM
- GI50 (NCI-H460 lung): 966 nM
- TGI (NCI-H460 lung): 1860 nM
- GI50 (NCI-H23 lung): 1400 nM
- TGI (NCI-H23 lung): 4370 nM
- GI50 (SF-539 CNS): 860 nM
- TGI (SF-539 CNS): 1620 nM
- GI50 (HCT-15 colon): 733 nM
- TGI (HCT-15 colon): 1620 nM
- GI50 (COLO 205 colon): 924 nM
- TGI (COLO 205 colon): 1860 nM
- GI50 (U251 CNS): 834 nM
- TGI (U251 CNS): 1650 nM
- GI50 (HCC-2998 colon): 877 nM
- TGI (HCC-2998 colon): 1780 nM
- GI50 (MALME-3M melanoma): 879 nM
- TGI (MALME-3M melanoma): 1670 nM
- GI50 (A498 renal): 2900 nM
- TGI (A498 renal): 9030 nM
- GI50 (MDA-MB-231 breast): 913 nM
- TGI (MDA-MB-231 breast): 1830 nM
- GI50 (UACC-257 melanoma): 909 nM
- TGI (UACC-257 melanoma): 1710 nM
- GI50 (SK-MEL-5 melanoma): 900 nM
- TGI (SK-MEL-5 melanoma): 1640 nM
- GI50 (MDA-MB-435): 910 nM
- TGI (MDA-MB-435): 1760 nM
- GI50 (OVCAR-8 ovarian): 966 nM
- TGI (OVCAR-8 ovarian): 1950 nM
- GI50 (M14 melanoma): 895 nM
- TGI (M14 melanoma): 1710 nM
- GI50 (HS 578T breast): 1050 nM
- TGI (HS 578T breast): 2420 nM
- GI50 (NCI-H522 lung): 909 nM
- TGI (NCI-H522 lung): 1720 nM
- GI50 (ACHN renal): 1140 nM
- TGI (ACHN renal): 2640 nM
- GI50 (IGROV1 ovarian): 1120 nM
- TGI (IGROV1 ovarian): 2610 nM
- GI50 (NCI/ADR-RES ovarian): 1380 nM
- TGI (NCI/ADR-RES ovarian): 3960 nM
- GI50 (MCF7 breast): 893 nM
- TGI (MCF7 breast): 1840 nM
- GI50 (DU-145 prostate): 1520 nM
- TGI (DU-145 prostate): 4640 nM
- GI50 (SW-620 colon): 853 nM
- TGI (SW-620 colon): 1640 nM
- GI50 (EKVX NSCLC): 1970 nM
- TGI (EKVX NSCLC): 7470 nM
- GI50 (SF-295 CNS): 956 nM
- TGI (SF-295 CNS): 1930 nM
- GI50 (T-47D breast): 829 nM
- TGI (T-47D breast): 1620 nM
- GI50 (HOP-62 NSCLC): 954 nM
- TGI (HOP-62 NSCLC): 1990 nM
- GI50 (SK-MEL-2 melanoma): 853 nM
- TGI (SK-MEL-2 melanoma): 1610 nM
- GI50 (UACC-62 melanoma): 912 nM
- TGI (UACC-62 melanoma): 1740 nM
- GI50 (CCRF-CEM leukemia): 792 nM
- TGI (CCRF-CEM leukemia): 3380 nM
- GI50 (HOP-92 NSCLC): 909 nM
- TGI (HOP-92 NSCLC): 3410 nM
- GI50 (SNB-75 CNS): 2110 nM
- TGI (SNB-75 CNS): 4480 nM
- GI50 (KM12 colon): 1160 nM
- TGI (KM12 colon): 2670 nM
- GI50 (RXF 393 renal): 792 nM
- TGI (RXF 393 renal): 1590 nM
- GI50 (RPMI-8226 leukemia): 1030 nM
- TGI (RPMI-8226 leukemia): 2660 nM
- GI50 (SK-MEL-28 melanoma): 926 nM
- TGI (SK-MEL-28 melanoma): 1690 nM
- GI50 (HCT-116 colon): 735 nM
- TGI (HCT-116 colon): 1490 nM
- GI50 (NCI-H226 lung): 3000 nM
- TGI (NCI-H226 lung): 9350 nM
- GI50 (TK-10 renal): 2920 nM
- TGI (TK-10 renal): 7140 nM
- GI50 (SF-268 CNS): 941 nM
- TGI (SF-268 CNS): 2010 nM
- GI50 (HL-60(TB) leukemia): 1000 nM
- TGI (HL-60(TB) leukemia): 2350 nM
- GI50 (OVCAR-5 ovarian): 1250 nM
- TGI (OVCAR-5 ovarian): 3310 nM

Reference: PubChem BioAssay (NCI)
